Converted amounts (≈) assume the structure as drawn. Read-outs that look alike come from different tables or passages of the source. Starred links: 1 amine or outer side, 2 acyl side, 3 side chain; linkers in the order of their positions; H or OH if unused. Positions of bridges follow the written chain, without caps; N, C: chain ends. Non-standard residues stand in square brackets, D forms with d. Residues, ends and D or L forms follow the SMILES beside them. *: point of attachment. C20 diacid = O=C(O)CCCCCCCCCCCCCCCCCCC(=O)*; C18 diacid = O=C(O)CCCCCCCCCCCCCCCCC(=O)*; γGlu = O=C(O)[C@H](CCC(=O)[*:2])N[*:1]; Orn = NCCC[C@H](N)C(=O)O; AEEA = NCCOCCOCC(=O)O
What was measured:
[1] = Assay (IV) determination of solubility; type: physicochemical
Method in brief: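 Solubility is measured across pH 3.0–8.0 by mixing a ~500 nmol/ml aqueous polypeptide stock 1:1 with 100 mM glycylglycine or bistrispropane buffers. Samples stand 18 hours at room temperature, then are centrifuged and the soluble concentration is determined by HPLC.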

[2] = target: T1, rat amylin 3(a) receptor (rat calcitonin(a) receptor + rat RAMP3) (Rattus norvegicus, UniProt P32214+Q9JJ73); test: Assay (II)b functional cAMP FlashPlate assay, rat amylin receptor; type: cell-based; conditions: Table 11
T1 construct: expressed in transfected cells; host or cells: BHK tk'ts 13
T1 sequence (P32214 25-479 isoform P32214-2 limits assumed): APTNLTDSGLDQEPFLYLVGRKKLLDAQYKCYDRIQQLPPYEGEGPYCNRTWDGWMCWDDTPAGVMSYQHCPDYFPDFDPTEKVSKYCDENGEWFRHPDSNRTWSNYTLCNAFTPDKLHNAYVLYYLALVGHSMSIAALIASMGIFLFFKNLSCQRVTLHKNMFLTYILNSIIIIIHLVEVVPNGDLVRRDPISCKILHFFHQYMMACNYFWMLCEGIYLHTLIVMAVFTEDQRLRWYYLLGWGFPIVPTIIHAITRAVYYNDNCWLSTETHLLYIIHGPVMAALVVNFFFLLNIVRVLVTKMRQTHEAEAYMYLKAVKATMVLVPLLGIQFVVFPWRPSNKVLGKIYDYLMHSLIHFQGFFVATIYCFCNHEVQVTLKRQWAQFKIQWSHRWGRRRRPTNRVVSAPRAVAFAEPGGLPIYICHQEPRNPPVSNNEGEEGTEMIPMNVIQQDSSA
T1 sequence (Q9JJ73 23-147 partner): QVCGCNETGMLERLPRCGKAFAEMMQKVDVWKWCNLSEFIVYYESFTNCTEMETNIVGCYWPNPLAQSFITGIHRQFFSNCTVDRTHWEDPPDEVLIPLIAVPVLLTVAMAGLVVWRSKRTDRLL
Method in brief: (§1)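 BHK tk'ts 13 cells transiently transfected with rat calcitonin(a) receptor, alone or with rat RAMP3 (amylin 3(a)), were stimulated 24 hours later with sample for 30 min in buffer containing IBMX. cAMP measured by competitive radioactive FlashPlate assay, scintillation read after 3 h detection incubation.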

[3] = target: T2, human amylin receptor (amylin 3(a) receptor: human calcitonin receptor + RAMP-3) (Homo sapiens, UniProt O60896+P30988); test: Assay (II)a functional CRE-luciferase assay, human amylin receptor; type: cell-based; conditions: Table 2; BHK amylin 3(a)-receptor/CRE-luc cells
T2 construct: expressed in transfected cells; host or cells: BHK570
T2 sequence (P30988 25-474): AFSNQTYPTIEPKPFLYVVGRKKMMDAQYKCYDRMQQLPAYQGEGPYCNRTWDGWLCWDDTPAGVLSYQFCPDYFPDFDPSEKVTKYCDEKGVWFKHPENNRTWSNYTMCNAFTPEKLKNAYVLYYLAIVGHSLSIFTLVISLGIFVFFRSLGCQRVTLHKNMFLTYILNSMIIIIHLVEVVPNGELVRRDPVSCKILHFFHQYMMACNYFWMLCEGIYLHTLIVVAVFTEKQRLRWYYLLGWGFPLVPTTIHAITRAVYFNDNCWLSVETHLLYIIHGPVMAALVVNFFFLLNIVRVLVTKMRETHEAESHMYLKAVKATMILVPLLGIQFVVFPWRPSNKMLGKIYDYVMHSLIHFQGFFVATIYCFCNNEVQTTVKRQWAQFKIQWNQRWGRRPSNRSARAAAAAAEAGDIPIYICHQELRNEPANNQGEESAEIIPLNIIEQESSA
T2 sequence (O60896 24-148 partner): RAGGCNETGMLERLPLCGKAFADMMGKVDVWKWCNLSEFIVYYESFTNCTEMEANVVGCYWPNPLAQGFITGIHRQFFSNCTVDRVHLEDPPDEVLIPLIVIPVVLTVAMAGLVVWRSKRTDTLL

[4] = target: T3, rat calcitonin (a) receptor (Rattus norvegicus, UniProt P32214); test: Assay (II)b functional cAMP FlashPlate assay, rat calcitonin receptor; type: cell-based; conditions: Table 11; read-out: CTa receptor rat EC50
T3 construct: expressed in transfected cells; host or cells: BHK tk'ts 13
T3 sequence (P32214 25-479 isoform P32214-2 limits assumed): T1 sequence (P32214 25-479 isoform P32214-2 limits assumed)
Method in brief: as §1

[5] = target: T4, human calcitonin receptor (Homo sapiens, UniProt P30988); test: Assay (II)a functional CRE-luciferase assay, human calcitonin receptor; type: cell-based; conditions: Table 7; human calcitonin (CTa) receptor
T4 construct: expressed in transfected cells; host or cells: BHK570
T4 sequence (P30988 25-474): T2 sequence (P30988 25-474)

[6] = bistrispropane buffer, pH 6, pH 6.0, read-out: Solubility pH 6.0
[7] = bistrispropane buffer, pH 6.5, pH 6.5, read-out: Solubility pH 6.5
[8] = bistrispropane buffer, pH 7, pH 7.0, 18 hours at room temperature, Table 3, read-out: Solubility pH 7.0
[9] = bistrispropane buffer, pH 7, pH 7.0, read-out: Solubility pH 7.0
[10] = bistrispropane buffer, pH 7.5, pH 7.5, read-out: Solubility pH 7.5
[11] = bistrispropane buffer, pH 8, pH 8.0, read-out: Solubility pH 8.0
[12] = glycylglycine buffer, pH 3, pH 3.0, read-out: Solubility pH 3.0
[13] = glycylglycine buffer, pH 4, pH 4.0, 18 hours at room temperature, Table 2, read-out: Solubility pH 4.0
[14] = glycylglycine buffer, pH 4, pH 4.0, read-out: Solubility pH 4.0
[15] = glycylglycine buffer, pH 5, pH 5.0, read-out: Solubility pH 5.0

Row | solubility at 18 h [1, 6] | solubility at 18 h [1, 7] | solubility at 18 h [1, 8] | solubility at 18 h [1, 9] | solubility at 18 h [1, 10] | solubility at 18 h [1, 11] | solubility at 18 h [1, 12] | solubility at 18 h [1, 13] | solubility at 18 h [1, 14] | solubility at 18 h [1, 15] | EC50 [2] | EC50 [3] | EC50 [4] | EC50 [5] | solubility at 18 h ([1]; bistrispropane buffer, pH 7, pH 7.0, Table 8, read-out: Solubility pH 7.0) | solubility at 18 h ([1]; bistrispropane buffer, pH 7, pH 7.0, Table 9, read-out: Solubility pH 7.0) | solubility at 18 h ([1]; bistrispropane buffer, pH 7.5, pH 7.5, Table 9, read-out: Solubility pH 7.5) | SMILES
1 | > 200 µM | > 200 µM | > 200 µM | > 200 µM | > 200 µM | 197 µM (≈ 992 µg/mL) | > 200 µM | > 200 µM | > 200 µM | > 200 µM | 0.033 nM | 0.0295 nM | 2.57 nM | 0.691 nM | – | – | – | CC[C@H](C)[C@H](NC(=O)[C@@H]1CCCN1C(=O)CNC(=O)[C@H](Cc1ccccc1)NC(=O)[C@H](CC(N)=O)NC(=O)[C@H](CC(N)=O)NC(=O)[C@H](CO)NC(=O)[C@H](CO)NC(=O)[C@H](CCCNC(=N)N)NC(=O)[C@H](Cc1c[nH]cn1)NC(=O)[C@H](CC(C)C)NC(=O)[C@H](Cc1ccccc1)NC(=O)[C@H](CCC(=O)O)NC(=O)[C@H](C)NC(=O)[C@H](CC(C)C)NC(=O)[C@H](CCCNC(=N)N)NC(=O)[C@H](CCC(N)=O)NC(=O)[C@@H](NC(=O)[C@H](C)NC(=O)[C@@H]1CSSC[C@H](NC(=O)[C@H](CCCN)NC(=O)[C@@H](CCCNC(=N)N)NC(=O)[C@@H](CCCNC(=N)N)NC(=O)COCCOCCNC(=O)COCCOCCNC(=O)CC[C@H](NC(=O)CCCCCCCCCCCCCCCCC(=O)O)C(=O)O)C(=O)N[C@@H](CC(N)=O)C(=O)N[C@@H]([C@@H](C)O)C(=O)N[C@@H](C)C(=O)N[C@@H]([C@@H](C)O)C(=O)N1)[C@@H](C)O)C(=O)N[C@@H](CC(C)C)C(=O)N1CCC[C@H]1C(=O)N1CCC[C@H]1C(=O)N[C@H](C(=O)N[C@@H](CC(N)=O)C(=O)N[C@H](C(=O)NCC(=O)N[C@@H](CO)C(=O)N[C@@H](CC(N)=O)C(=O)N[C@H](C(=O)N[C@@H](Cc1ccc(O)cc1)C(N)=O)[C@@H](C)O)C(C)C)[C@@H](C)O [Example 120, N-alpha-[2-(2-{2-[2-(2-{2-[(S)-4-Carboxy-4-(17-carboxyheptadecanoylamino)butyrylamino]ethoxy}ethoxy)acetylamino]ethoxy}ethoxy)acetyl]-D-Arg-D-Arg-[Orn1,Glu14,His17,Arg18]-pramlintide] ({C18 diacid-γGlu-AEEA-AEEA}-[dR][dR][Orn]CNTATCATQRLAEFLHRSSNNFGPILPPTNVGSNTY-NH2; disulfide 4-9 (inferred); C-terminus assumed)
2 | > 200 µM | 8 µM (≈ 38.1 µg/mL) | – | – | 10 µM (≈ 47.6 µg/mL) | 65 µM (≈ 310 µg/mL) | > 200 µM | > 200 µM | > 200 µM | > 200 µM | 0.2 nM | 0.164 nM | 1.31 nM | 0.156 nM | – | – | – | CC[C@H](C)[C@H](NC(=O)[C@@H]1CCCN1C(=O)CNC(=O)[C@H](Cc1ccccc1)NC(=O)[C@H](CC(N)=O)NC(=O)[C@H](CC(N)=O)NC(=O)[C@H](CO)NC(=O)[C@H](CO)NC(=O)[C@H](Cc1c[nH]cn1)NC(=O)[C@H](Cc1c[nH]cn1)NC(=O)[C@H](CC(C)C)NC(=O)[C@H](Cc1ccccc1)NC(=O)[C@H](CCC(=O)O)NC(=O)[C@H](C)NC(=O)[C@H](CC(C)C)NC(=O)[C@H](CCCNC(=N)N)NC(=O)[C@H](CCC(N)=O)NC(=O)[C@@H](NC(=O)[C@H](C)NC(=O)[C@@H]1CSSC[C@H](NC(=O)[C@H](Cc2c[nH]cn2)NC(=O)[C@H](Cc2c[nH]cn2)NC(=O)[C@H](Cc2c[nH]cn2)NC(=O)CC[C@H](NC(=O)CCCCCCCCCCCCCCCCCCC(=O)O)C(=O)O)C(=O)N[C@@H](CC(N)=O)C(=O)N[C@@H]([C@@H](C)O)C(=O)N[C@@H](C)C(=O)N[C@@H]([C@@H](C)O)C(=O)N1)[C@@H](C)O)C(=O)N[C@@H](CC(C)C)C(=O)N1CCC[C@H]1C(=O)N1CCC[C@H]1C(=O)N[C@H](C(=O)N[C@@H](CC(N)=O)C(=O)N[C@H](C(=O)NCC(=O)N[C@@H](CO)C(=O)N[C@@H](Cc1c[nH]cn1)C(=O)N[C@H](C(=O)N[C@@H](Cc1ccc(O)cc1)C(N)=O)[C@@H](C)O)C(C)C)[C@@H](C)O [Example 31, N-alpha-[(S)-4-Carboxy-4-(19-carboxynonadecanoylamino)butyryl]-His-His-[His1,Glu14,His17,His35]-pramlintide] ({C20 diacid-γGlu}-HHHCNTATCATQRLAEFLHHSSNNFGPILPPTNVGSHTY-NH2; disulfide 4-9 (inferred); C-terminus assumed)
3 | > 200 µM | > 200 µM | > 200 µM | > 200 µM | > 200 µM | > 200 µM | > 200 µM | > 200 µM | > 200 µM | > 200 µM | 0.075 nM | 0.0515 nM | 0.044 nM | 0.0455 nM | > 200 µM | > 200 µM | > 200 µM | CC[C@H](C)[C@H](NC(=O)[C@@H]1CCCN1C(=O)CNC(=O)[C@H](Cc1ccccc1)NC(=O)[C@H](CC(N)=O)NC(=O)[C@H](CC(N)=O)NC(=O)[C@H](CO)NC(=O)[C@H](CO)NC(=O)[C@H](Cc1c[nH]cn1)NC(=O)[C@H](Cc1c[nH]cn1)NC(=O)[C@H](CC(C)C)NC(=O)[C@H](Cc1ccccc1)NC(=O)[C@H](CCC(=O)O)NC(=O)[C@H](C)NC(=O)[C@H](CC(C)C)NC(=O)[C@H](CCCNC(=N)N)NC(=O)[C@H](CCC(N)=O)NC(=O)[C@@H](NC(=O)[C@H](C)NC(=O)[C@@H]1CSSC[C@H](NC(=O)[C@H](CCCNC(=N)N)NC(=O)CNC(=O)CC[C@H](NC(=O)CCCCCCCCCCCCCCCCCCC(=O)O)C(=O)O)C(=O)N[C@@H](CC(N)=O)C(=O)N[C@@H]([C@@H](C)O)C(=O)N[C@@H](C)C(=O)N[C@@H]([C@@H](C)O)C(=O)N1)[C@@H](C)O)C(=O)N[C@@H](CC(C)C)C(=O)N1CCC[C@H]1C(=O)N1CCC[C@H]1C(=O)N[C@H](C(=O)N[C@@H](CC(N)=O)C(=O)N[C@H](C(=O)NCC(=O)N[C@@H](CO)C(=O)N[C@@H](CC(N)=O)C(=O)N[C@H](C(=O)N1CCC[C@H]1C(N)=O)[C@@H](C)O)C(C)C)[C@@H](C)O [Example 101, N-alpha-[(S)-4-Carboxy-4-(19-carboxynonadecanoylamino)butyryl]-Gly-[Arg1,Glu14,His17,Pro37]-pramlintide] ({C20 diacid-γGlu}-GRCNTATCATQRLAEFLHHSSNNFGPILPPTNVGSNTP-NH2; disulfide 3-8 (inferred))

Source: US8722849B2, “Polypeptides” (Novo Nordisk A/S, priority 2011, dated 2014)
